Data from PMC10885651 (BMC Chemistry, 2024).

Columns and labels:
[1] = tested on: mushroom tyrosinase (EC 1.14.18.1); assay: Mushroom tyrosinase inhibition assay, L-Dopa as substrate (diphenolase activity, dopachrome at 490 nm); format: biochemical; conditions: for % Inhibition at 80 µM: 80 µM compound; for % Inhibition at 80 µM / % Inhibition at 30 µM: mean of three independent experiments; for % Inhibition at 30 µM: 30 µM compound
Protocol: We conducted the assay of mushroom tyrosinase (EC 1.14.18.1) utilizing L-Dopa as the substrate, as previously described, with minor adaptations. We employed a spectrophotometric technique to assess the enzyme's diphenolase activity, observing dopachrome formation at 490 nm. […] In a 96-well microplate, 10 µl of the test samples were combined with 140 µl of 50 mM phosphate buffer (pH = 6.8). Subsequently, 20 µl of tyrosinase (273 U mL^−1) was introduced. Following a pre-incubation period of 20 min at 28 °C, 20 µl of L-Dopa solution (resulting in a final concentration of 0.7 mM) was added to the mixture. Following a 10-min incubation, the absorbance of the samples was measured. The inhibitory activity of the tested compounds was stated as IC50. The ratio percentage of inhibition was calculated according to the equation below: Inhibition%=100Abscontrol-Abscompound/Abscontrol

tyrosinase = conditions: Fig. 1; cited from earlier work
mushroom tyrosinase = assay: Kinetic study of tyrosinase inhibition (Lineweaver-Burk plots); format: biochemical
Description: Mechanism and type of inhibition were elucidated through kinetic investigations. […] Lineweaver–Burk plots, depicting 1/V against 1/[S], were constructed to illustrate the inhibition of tyrosinase by 6b across varying concentrations of both 6b and L-Dopa, the substrate. In this context, Km represents the Michaelis–Menten constant, while Vmax signifies the maximum reaction velocity.
Based on these findings, it can be inferred that the inhibitory effect of compound 6b is competitive.
The inhibitor concentrations employed ranged from 2 to 20 μM, while the substrate (L-Dopa) concentrations in the rane of 0.1 mM to 1.5 mM through all kinetic experiments. The pre-incubation and measurement durations followed the protocol outlined in the mushroom tyrosinase inhibition assay. The maximum initial velocity was ascertained from the initial linear segment of absorbance within a 10-min window following the introduction of L-Dopa, with measurements taken at 1-min intervals. Utilizing the Lineweaver–Burk plot technique, we calculated the Michaelis constant (Km) and the tyrosinase activity's maximal velocity (Vmax). This plot involved various L-Dopa concentrations as the substrate. For assessing the enzyme's inhibition type, we employed Lineweaver–Burk plots featuring the reciprocal of velocities (1/V) plotted against the reciprocal of substrate concentrations (1/[S] mM^−1).

% Inhibition at 80 µM [1] [%] | melting point [°C] | Compound | other results
20.45 ± 4.54 |  | 2-Amino-4-(3-((para-tolyl)oxy)phenyl)-6-(hydroxymethyl)-8-oxo-4,8-dihydropyrano[3,2-b]pyran-3-carbonitrile [6j] | tyrosinase inhibitory activity (in words) [1]: without any activity
89.27 ± 2.59 | 227 to 230 | N#CC1=C(N)Oc2c(oc(CO)cc2=O)C1c1ccc(OCc2ccc(F)cc2)cc1 (centres unmarked) [6b, 2-Amino-4-(4-((4-fluorobenzyl)oxy)phenyl)-6-(hydroxymethyl)-8-oxo-4,8-dihydropyrano[3,2-b]pyran-3-carbonitrile] | IC50 [1]: 7.69 ± 1.99 µM; % Inhibition at 30 µM [1]: 79.81 ± 6.18%; type of inhibition (mushroom tyrosinase; Lineweaver-Burk plot, Vmax constant, Km rising): competitive; Ki (mushroom tyrosinase; secondary plot of Km vs concentration of inhibitor, L-Dopa 0.1-1.5 mM, read-out: inhibition constant Ki): 7.57 µM
50.01 ± 4.34 | 236 to 239 | N#CC1=C(N)Oc2c(oc(CO)cc2=O)C1c1ccc(OCc2ccc(Cl)cc2)cc1 (centres unmarked) [6c, 2-Amino-4-(4-((4-chlorobenzyl)oxy)phenyl)-6-(hydroxymethyl)-8-oxo-4,8-dihydropyrano[3,2-b]pyran-3-carbonitrile] | IC50 [1]: 79.2 ± 3.3 µM; % Inhibition at 30 µM [1]: 44.09 ± 2.94%
66.36 ± 3.64 | 214 to 216 | N#CC1=C(N)Oc2c(oc(CO)cc2=O)C1c1ccc(OCc2ccc(Br)cc2)cc1 (centres unmarked) [6d, 2-Amino-4-(4-((4-bromobenzyl)oxy)phenyl)-6-(hydroxymethyl)-8-oxo-4,8 dihydropyrano[3,2-b]pyran-3-carbonitrile] | IC50 [1]: 34 ± 2.53 µM; % Inhibition at 30 µM [1]: 48.86 ± 3.53%
48.63 ± 6.37 | 215 to 218 | Cc1ccc(COc2ccc(C3C(C#N)=C(N)Oc4c3oc(CO)cc4=O)cc2)cc1 (centres unmarked) [6e, 2-Amino-6-(hydroxymethyl)-4-(4-((4-methylbenzyl)oxy)phenyl)-8-oxo-4,8-dihydropyrano[3,2-b]pyran-3-carbonitrile] | 
42.27 ± 2.72 | 235 to 238 | N#CC1=C(N)Oc2c(oc(CO)cc2=O)C1c1cccc(OCc2ccccc2)c1 (centres unmarked) [6f, 2-Amino-4-(3-(benzyloxy)phenyl)-6-(hydroxymethyl)-8-oxo-4,8-dihydropyrano[3,2-b]pyran-3-carbonitrile] | tyrosinase inhibitory activity (in words) [1]: no inhibitory activity
67.95 ± 4.54 | 232 to 236 | N#CC1=C(N)Oc2c(oc(CO)cc2=O)C1c1cccc(OCc2ccc(Cl)cc2)c1 (centres unmarked) [6h, 2-Amino-4-(3-((4-chlorobenzyl)oxy)phenyl)-6-(hydroxymethyl)-8-oxo-4,8-dihydropyrano[3,2-b]pyran-3-carbonitrile] | IC50 [1]: 10.7 ± 4.96 µM; % Inhibition at 30 µM [1]: 65.90 ± 5.09%
67.72 ± 7.27 | 236 to 238 | N#CC1=C(N)Oc2c(oc(CO)cc2=O)C1c1cccc(OCc2ccc(Br)cc2)c1 (centres unmarked) [6i, 2-Amino-4-(3-((4-bromobenzyl)oxy)phenyl)-6-(hydroxymethyl)-8-oxo-4,8-dihydropyrano[3,2-b]pyran-3-carbonitrile] | IC50 [1]: 15.3 ± 3.17 µM; % Inhibition at 30 µM [1]: 59.54 ± 5.44%
10.25 ± 3.48 |  | COc1cc(C2C(C#N)=C(N)Oc3c2oc(CO)cc3=O)ccc1OCc1ccccc1 (centres unmarked) [6k, 2-Amino-4-(4-(benzyloxy)-3-methoxyphenyl)-6-(hydroxymethyl)-8-oxo-4,8 dihydropyrano[3,2-b]pyran-3-carbonitrile] | 
49.31 ± 6.12 |  | COc1cc(C2C(C#N)=C(N)Oc3c2oc(CO)cc3=O)ccc1OCc1ccc(Cl)cc1 (centres unmarked) [6m, 2-Amino-4-(4-((4-cholorobenzyl)oxy)-3-methoxyphenyl)-6-(hydroxymethyl)-8-oxo-4,8-dihydropyrano[3,2-b]pyran-3-carbonitrile] | 

More lines, now with the values behind:

Compound | % Inhibition at 80 µM [1] [%] | melting point [°C] | other results
Nn1c(SCc2cc(=O)c(O)co2)nnc1-c1ccc(Cl)cc1 [1a] |  |  | IC50 (tyrosinase): 4.5 µM
O=c1cc(Cc2cn(Cc3cccc4ccccc34)nn2)occ1O [1b] |  |  | IC50 (tyrosinase): 0.06 µM
O=c1cc(/C=C/c2cc(=O)c(O)co2)occ1O [1c] |  |  | IC50 (tyrosinase): 30.6 µM
O=c1cc(CSc2nnc(-c3ccccc3)n2NCc2ccc(O)c(O)c2)occ1O [1d] |  |  | IC50 (tyrosinase): 1.35 µM
CCOC(=O)C1=C(N)Oc2c(ccc3ccccc23)C1c1cccc(Cl)c1 (centres unmarked) [1e] |  |  | IC50 (tyrosinase): 34.1 µM
CC1(C)CC(=O)C2=C(C1)Oc1ncn3ncnc3c1C2c1ccccc1 (centres unmarked) [1f] |  |  | Inhibition percentage (tyrosinase): 78%
N#CC1=C(N)Oc2c(oc(CO)cc2=O)C1c1ccc(OCc2ccccc2)cc1 (centres unmarked) [6a, 2-Amino-4-(4-(benzyloxy)phenyl)-6-(hydroxymethyl)-8-oxo-4,8-dihydropyrano[3,2-b]pyran-3-carbonitrile] | 47.90 ± 3.90 | 221 to 224 | tyrosinase inhibitory activity (in words) [1]: inactive
N#CC1=C(N)Oc2c(oc(CO)cc2=O)C1c1cccc(OCc2ccc(F)cc2)c1 (centres unmarked) [6g, 2-Amino-4-(3-((4-fluorobenzyl)oxy)phenyl)-6-(hydroxymethyl)-8-oxo-4,8-dihydropyrano[3,2-b]pyran-3-carbonitrile] | 88.63 ± 6.36 | 239 to 242 | IC50 [1]: 9.72 ± 2.47 µM; % Inhibition at 30 µM [1]: 77.95 ± 4.54%
COc1cc(C2C(C#N)=C(N)Oc3c2oc(CO)cc3=O)ccc1OCc1ccc(F)cc1 (centres unmarked) [6l, 2-Amino-4-(4-((4-fluorobenzyl)oxy)-3-methoxyphenyl)-6-(hydroxymethyl)-8-oxo-4,8-dihydropyrano[3,2-b]pyran-3-carbonitrile] | 49.09 ± 4.91 |  | 
COc1cc(C2C(C#N)=C(N)Oc3c2oc(CO)cc3=O)ccc1OCc1ccc(Br)cc1 (centres unmarked) [6n, 2-Amino-4-(4-((4-boromobenzyl)oxy)-3-methoxyphenyl)-6-(hydroxymethyl)-8-oxo-4,8-dihydropyrano[3,2-b]pyran-3-carbonitrile] | 21.36 ± 3.63 |  | 
COc1cc(C2C(C#N)=C(N)Oc3c2oc(CO)cc3=O)ccc1OCc1ccc(C)cc1 (centres unmarked) [6o, 2-Amino-6-(hydroxymethyl)-4-(3-methoxy-4-((4-methylbenzyl)oxy)phenyl)-8-oxo-4,8 dihydropyrano[3,2-b]pyran-3-carbonitrile] | 44.31 ± 4.18 |  | 
